Converted amounts (≈) assume the structure as drawn.
Assays:
[1] = organism: Homo sapiens; test: Inhibition of p70S6Kb kinase (unknown origin) at 0.1 uM
[2] = Ratio of AUC(0 to 24 hrs) in femoral head to plasma in rat measured after 24 hrs; format: ADME, Bone/Plasma; conditions: read-out: Selectivity ratio
[3] = Intrinsic clearance in C57BL/6 mouse at 3 mg/kg, iv; format: ADME, organism-based; conditions: in vivo
[4] = Cmax in Lewis rat plasma at 30 mg/kg, po measured after 8 hrs; format: ADME, organism-based; design: route oral, time 8 hrs, dose 30 mg/kg
[5] = target: Ribosomal protein S6 kinase alpha-1 (Homo sapiens) (UniProt Q15418); test: Inhibition of RSK1 kinase (unknown origin) at 0.1 uM
[6] = AUC (0 to 24 hrs) in C57BL/6 mouse at 30 mg/kg, po; format: ADME, organism-based; design: time < 24 hr, route oral, dose 30 mg/kg; conditions: in vivo
[7] = target: T1, Serine/threonine-protein kinase Sgk1 (Homo sapiens, UniProt O00141); test: Inhibition of recombinant human SGK1 expressed in baculovirus expression system using 5-carboxyfluorescein -RPRAATF-NH2 as substrate preincubated for 30 mins followed by substrate addition in presence of 10 uM ATP and measured after 60 mins by microfluidics assay
T1 sequence (O00141 whole entry): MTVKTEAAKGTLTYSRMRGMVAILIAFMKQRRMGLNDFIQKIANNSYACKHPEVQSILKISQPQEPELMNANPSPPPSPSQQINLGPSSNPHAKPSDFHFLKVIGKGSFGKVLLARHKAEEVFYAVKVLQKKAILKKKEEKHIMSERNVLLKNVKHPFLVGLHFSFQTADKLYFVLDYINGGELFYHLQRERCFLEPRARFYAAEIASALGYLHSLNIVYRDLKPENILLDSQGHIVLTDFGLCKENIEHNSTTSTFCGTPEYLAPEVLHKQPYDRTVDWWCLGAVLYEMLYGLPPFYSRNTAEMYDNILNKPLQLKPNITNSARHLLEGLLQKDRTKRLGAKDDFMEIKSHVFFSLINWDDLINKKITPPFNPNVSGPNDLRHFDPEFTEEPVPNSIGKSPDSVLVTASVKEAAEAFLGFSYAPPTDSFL

[8] = target: CYP3A4 (Homo sapiens, UniProt P08684); test: Inhibition of CYP3A4 in human liver microsomes by measuring maximum efficacy; format: ADME
[9] = target: T2, hERG (KCNH2) (Homo sapiens, UniProt Q12809); test: Inhibition of human ERG at 1 uM relative to control; format: toxicity
[10] = Aqueous solubility of the compound at pH 7.4; format: physicochemical
[11] = Effect on chondrocyte hypertrophic differentiation mouse ATDC-5 cells assessed as inhibition of […] gene expression incubated for 2 weeks followed by compound added and every 3 days medium is changed measured after 2 weeks by RT-qPCR analysis; format: functional, cell-based
[12] = target: T2, hERG (KCNH2); test: Inhibition of human ERG at 10 uM; format: toxicity
[13] = Volume of distribution at steady state in C57BL/6 mouse at 3 mg/kg, iv qd; format: ADME, organism-based; conditions: in vivo, read-out: Vdss
[14] = Metabolic stability in Sprague-Dawley rat liver microsomes assessed as compound degradation in presence of NADPH measured after 20 mins; format: ADME, Microsome; conditions: read-out: Drug degradation
[15] = target: T3, Cytochrome P450 3A4 (Homo sapiens, UniProt P08684); test: Inhibition of CYP3A4 in human liver microsomes using testosterone as substrate incubated for 30 mins by LC-MS/MS analysis; format: ADME
[16] = Initial plasma concentration in C57BL/6 mouse at 3 mg/kg, iv; format: ADME, organism-based
[17] = AUC (0 to 24 hrs) in C57BL/6 mouse at 3 mg/kg, iv; format: ADME, organism-based; design: time < 24 hr, route intravenous, dose 3 mg/kg; conditions: in vivo
[18] = Solubility of the compound in FeSSIF at pH 5.0; format: physicochemical
[19] = Metabolic stability in human liver microsomes assessed as compound degradation in presence of NADPH measured after 20 mins; format: ADME, Microsome; conditions: read-out: Drug degradation
[20] = Half life in C57BL/6 mouse plasma at 30 mg/kg, po measured after 8 hrs; format: ADME, organism-based
[21] = target: T1, Serine/threonine-protein kinase Sgk1; test: Inhibition of recombinant human SGK1 expressed in baculovirus expression system using 5-carboxyfluorescein -RPRAATF-NH2 as substrate preincubated for 30 mins followed by substrate addition in presence of 500 uM ATP and measured after 60 mins by microfluidics assay
[22] = Half life in C57BL/6 mouse plasma at 3 mg/kg, iv; format: ADME, organism-based
[23] = Distribution coefficient, logD of compound at pH 7.4 by chromatographic analysis; format: physicochemical; conditions: octanol/water
[24] = Tmax in Lewis rat femoral head cartilage at 30 mg/kg, po measured after 8 hrs; format: ADME, organism-based, Femur
[25] = Cmax in Lewis rat femoral head cartilage at 30 mg/kg, po measured after 8 hrs; format: ADME, organism-based, Femur; design: route oral, time 8 hrs, dose 30 mg/kg
[26] = AUC (0 to 24 hrs) in Lewis rat femoral head cartilage at 30 mg/kg, po measured after 8 hrs; format: ADME, organism-based, Femur; design: route oral, dose 30 mg/kg, time 8 hrs
[27] = Tmax in Lewis rat plasma at 30 mg/kg, po measured after 8 hrs; format: ADME, organism-based
[28] = target: T4, Serine/threonine-protein kinase Sgk1 (Mus musculus, UniProt Q9WVC6); test: Inhibition of mouse SGK1 in presence 500 uM presence of ATP
T4 sequence (Q9WVC6 whole entry): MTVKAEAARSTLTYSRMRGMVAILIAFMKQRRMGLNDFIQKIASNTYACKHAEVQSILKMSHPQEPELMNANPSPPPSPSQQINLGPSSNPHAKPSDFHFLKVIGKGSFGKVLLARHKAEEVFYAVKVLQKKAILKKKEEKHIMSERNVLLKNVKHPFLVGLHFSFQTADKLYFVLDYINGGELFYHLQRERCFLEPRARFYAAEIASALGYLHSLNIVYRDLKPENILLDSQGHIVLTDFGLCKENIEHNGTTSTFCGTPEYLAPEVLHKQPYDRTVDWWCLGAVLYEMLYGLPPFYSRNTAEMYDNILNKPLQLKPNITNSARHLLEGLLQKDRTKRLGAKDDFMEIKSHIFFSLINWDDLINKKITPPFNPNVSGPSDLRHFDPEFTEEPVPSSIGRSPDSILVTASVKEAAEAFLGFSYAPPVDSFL

[29] = AUC (0 to 24 hrs) in Lewis rat plasma at 30 mg/kg, po measured after 8 hrs; format: ADME, organism-based; design: route oral, dose 30 mg/kg, time 8 hrs
[30] = Tmax in C57BL/6 mouse plasma at 30 mg/kg, po; format: ADME, organism-based
[31] = Inhibition of rat SGK1 in presence 500 uM presence of ATP
[32] = Intrinsic clearance in human hepatocytes assessed per 10^-6 cells; format: ADME, cell-based, Hepatocyte
[33] = Permeability in human Caco2 cells at 20 uM incubated for 120 mins by ESI-MS/MS analysis; format: ADME, cell-based; conditions: Caco-2, read-out: permeability
[34] = Cmax in C57BL/6 mouse plasma at 30 mg/kg, po measured after 8 hrs; format: ADME, organism-based; design: route oral, time 8 hrs, dose 30 mg/kg
[35] = Chemical stability of the compound at pH 7.4 measured after 24 hrs; format: physicochemical; conditions: buffer, read-out: Stability
[36] = test system: Salmonella typhimurium; test: Mutagenicity in Salmonella typhimurium […] by ames test; format: toxicity, organism-based; conditions: salmonella enterica subsp. enterica serovar typhimurium
[37] = target: T3, Cytochrome P450 3A4; test: Inhibition of CYP3A4 in human liver microsomes using midazolam as substrate incubated for 10 mins by LC-MS/MS analysis; format: ADME
[38] = Oral bioavailability in C57BL/6 mouse at 30 mg/kg; format: ADME, organism-based; conditions: in vivo
[39] = test system: Salmonella typhimurium; test: Mutagenicity in Salmonella typhimurium […] in presence of S9 fraction by ames test; format: toxicity, organism-based; conditions: salmonella enterica subsp. enterica serovar typhimurium
[40] = Ratio of AUC(0 to 24 hrs) in femoral head to plasma in rat measured after 1 hrs; format: ADME, Bone/Plasma; conditions: read-out: Selectivity ratio
[41] = Metabolic stability in CD1 mouse liver microsomes assessed as compound degradation in presence of NADPH measured after 20 mins; format: ADME, Microsome; conditions: read-out: Drug degradation

T2 sequence (Q12809 whole entry): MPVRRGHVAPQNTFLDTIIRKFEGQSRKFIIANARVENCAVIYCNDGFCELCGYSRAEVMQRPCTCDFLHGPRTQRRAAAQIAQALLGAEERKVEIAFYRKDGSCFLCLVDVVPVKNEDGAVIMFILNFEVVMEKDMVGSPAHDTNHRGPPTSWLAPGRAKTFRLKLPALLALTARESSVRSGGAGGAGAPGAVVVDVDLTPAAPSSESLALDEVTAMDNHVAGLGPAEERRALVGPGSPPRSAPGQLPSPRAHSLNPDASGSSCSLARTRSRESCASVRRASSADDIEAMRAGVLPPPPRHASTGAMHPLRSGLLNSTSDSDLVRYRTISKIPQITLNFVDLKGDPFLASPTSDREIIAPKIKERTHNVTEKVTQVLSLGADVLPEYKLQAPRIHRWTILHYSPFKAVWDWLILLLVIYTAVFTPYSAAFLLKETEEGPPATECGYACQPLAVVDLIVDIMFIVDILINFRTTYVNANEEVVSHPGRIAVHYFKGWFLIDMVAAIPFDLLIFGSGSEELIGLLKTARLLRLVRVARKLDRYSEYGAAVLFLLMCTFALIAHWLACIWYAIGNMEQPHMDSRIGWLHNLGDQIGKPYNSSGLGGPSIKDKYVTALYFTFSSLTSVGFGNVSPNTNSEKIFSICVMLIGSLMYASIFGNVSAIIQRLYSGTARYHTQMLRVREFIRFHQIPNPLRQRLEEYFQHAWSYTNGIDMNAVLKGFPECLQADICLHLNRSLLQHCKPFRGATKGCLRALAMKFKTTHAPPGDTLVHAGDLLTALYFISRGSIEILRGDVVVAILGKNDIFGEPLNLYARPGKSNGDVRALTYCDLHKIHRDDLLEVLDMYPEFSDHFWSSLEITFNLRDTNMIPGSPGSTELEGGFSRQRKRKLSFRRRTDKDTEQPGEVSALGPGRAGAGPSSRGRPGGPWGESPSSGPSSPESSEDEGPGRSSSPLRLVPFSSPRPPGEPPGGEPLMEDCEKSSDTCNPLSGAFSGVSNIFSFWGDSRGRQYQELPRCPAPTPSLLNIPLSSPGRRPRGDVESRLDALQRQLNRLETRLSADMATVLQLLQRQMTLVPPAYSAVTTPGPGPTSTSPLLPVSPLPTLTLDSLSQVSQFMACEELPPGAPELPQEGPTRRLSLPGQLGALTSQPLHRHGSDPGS
T3 sequence (P08684 whole entry): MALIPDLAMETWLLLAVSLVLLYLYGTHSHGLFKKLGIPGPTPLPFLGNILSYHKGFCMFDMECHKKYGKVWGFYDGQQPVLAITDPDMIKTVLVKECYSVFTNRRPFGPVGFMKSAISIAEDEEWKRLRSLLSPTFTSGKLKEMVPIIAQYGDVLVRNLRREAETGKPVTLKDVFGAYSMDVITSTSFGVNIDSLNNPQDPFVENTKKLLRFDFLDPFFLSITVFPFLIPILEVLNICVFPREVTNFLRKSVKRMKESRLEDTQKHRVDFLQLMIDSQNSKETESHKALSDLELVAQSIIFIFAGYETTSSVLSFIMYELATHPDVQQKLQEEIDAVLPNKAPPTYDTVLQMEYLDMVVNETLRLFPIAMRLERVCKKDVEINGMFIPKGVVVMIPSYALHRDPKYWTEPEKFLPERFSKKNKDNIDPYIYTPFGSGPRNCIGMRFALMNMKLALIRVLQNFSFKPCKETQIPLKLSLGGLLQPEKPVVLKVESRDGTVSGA
Chain of CYP3A4 (P08684 whole entry): as above
Chain of Ribosomal protein S6 kinase alpha-1 (Homo sapiens) (Q15418 whole entry): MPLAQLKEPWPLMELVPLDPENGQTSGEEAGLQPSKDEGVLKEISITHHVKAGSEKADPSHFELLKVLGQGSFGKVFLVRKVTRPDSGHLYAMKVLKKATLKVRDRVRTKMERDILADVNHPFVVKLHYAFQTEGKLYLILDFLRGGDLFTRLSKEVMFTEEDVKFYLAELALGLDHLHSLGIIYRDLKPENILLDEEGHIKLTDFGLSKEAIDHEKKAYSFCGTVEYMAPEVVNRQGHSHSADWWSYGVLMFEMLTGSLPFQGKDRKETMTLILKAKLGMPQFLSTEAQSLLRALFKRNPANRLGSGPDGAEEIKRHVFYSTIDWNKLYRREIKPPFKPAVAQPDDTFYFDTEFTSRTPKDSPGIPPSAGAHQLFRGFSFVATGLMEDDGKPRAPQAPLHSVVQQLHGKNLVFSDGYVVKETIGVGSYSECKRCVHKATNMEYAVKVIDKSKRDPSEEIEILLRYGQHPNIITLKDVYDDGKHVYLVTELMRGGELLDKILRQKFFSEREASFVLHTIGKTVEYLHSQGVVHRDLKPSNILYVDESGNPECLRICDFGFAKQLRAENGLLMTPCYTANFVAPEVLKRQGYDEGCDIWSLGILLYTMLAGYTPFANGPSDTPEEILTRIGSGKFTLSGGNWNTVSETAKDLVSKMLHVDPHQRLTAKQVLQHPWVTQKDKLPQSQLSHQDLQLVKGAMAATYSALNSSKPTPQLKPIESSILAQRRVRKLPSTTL

Cc1n[nH]c2nc(-c3ccc(NS(=O)(=O)c4cc(Cl)ccc4F)cc3)nc(OC3CCN(C(C)C)CC3)c12
inhibition [1]: 58%
Kp at 24 h [2]: 1.1
CL [3]: 17 mL/min/kg
Cmax [4]: 4200 ng/mL
inhibition [5]: 64%
AUC(0-t) at 24 h [6]: 22800 ng·h/mL
IC50 [7]: 2 nM
Emax [8]: 0%
inhibition at 1 µM [9]: 60%
solubility [10]: < 1 µg/mL
IC50 [11]: 70 nM
inhibition at 10 µM [12]: 91%
Vd [13]: 2.4 L/kg
metabolised at 20 min [14]: 12%
IC50 [15]: > 30000 nM
C0 [16]: 2200 ng/mL
AUC(0-t) at 24 h [17]: 3200 ng·h/mL
solubility [18]: 281 µg/mL (≈ 503 µM)
metabolised at 20 min [19]: 9%
half-life [20]: 4.8 h
IC50 [21]: 3 nM
half-life [22]: 2.1 h
chromatographic logD [23]: 1.3
Tmax [24]: 8 h
Cmax [25]: 1200 ng/g
AUC(0-t) at 8 h [26]: 16900 ng·h/mL
Tmax [27]: 8 h
IC50 [28]: 171 nM
AUC(0-t) at 8 h [29]: 60100 ng·h/mL
Tmax [30]: 3.3 h
IC50 [31]: 224 nM
CLH [32]: 0.042 mL/h
Papp at 2 h, 20 µM [33]: 4.6 ×10⁻⁶ cm/s
Cmax [34]: 2200 ng/mL
remaining at 24 h [35]: 100%
Activity [36]: Non-Toxic
IC50 [37]: > 30000 nM
bioavailability [38]: 72%
Activity [39]: Non-Toxic
Kp at 1 h [40]: 0.1
metabolised at 20 min [41]: 15%

Cc1n[nH]c2nc(-c3ccc(NS(=O)(=O)c4cc(Cl)ccc4F)cc3)nc(OC3CCN(C4CC4)CC3)c12
IC50 [7]: 2 nM
Emax [8]: 3%
inhibition at 1 µM [9]: 24%
solubility [10]: < 1 µg/mL
IC50 [11]: 7 nM
inhibition at 10 µM [12]: 5%
metabolised at 20 min [14]: 4%
IC50 [15]: > 30000 nM
solubility [18]: 17 µg/mL (≈ 30.5 µM)
metabolised at 20 min [19]: 19%
IC50 [21]: 4 nM
chromatographic logD [23]: 3.4
CLH [32]: 0.02 mL/h
Papp at 2 h, 20 µM [33]: 5 ×10⁻⁶ cm/s
remaining at 24 h [35]: 100%
Activity [36]: Non-Toxic
IC50 [37]: > 30000 nM
Activity [39]: Non-Toxic
metabolised at 20 min [41]: 11%

Source: ChEMBL document CHEMBL5042500 (J Med Chem, 2022)
